Reference: patent US12077503B2, “Substituted cyclic amides and their use as herbicides” (FMC CORPORATION, priority 2015, dated 2024)

What was measured:
Type in all cases: in vivo
[1] = test system: Kochia (Kochia scoparia); test: Test A preemergence; conditions: Bassia scoparia, pre-emergence, 240 h, Preemergence
How it was run: (§1)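 Preemergence soil spray on seeded pots or post-emergence spray on 1–2 leaf plants, in loam–sand blend. Greenhouse ~10 d. Visual rating 0–100 against untreated plants.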

[2] = test system: barnyardgrass (Echinochloa crus-galli); test: Test A preemergence; conditions: Echinochloa crus-galli, pre-emergence, 240 h, Preemergence
How it was run: as §1

[3] = test system: giant foxtail (Setaria faberii); test: Test A preemergence; conditions: Setaria faberi, pre-emergence, 240 h, Preemergence
How it was run: as §1

[4] = test system: pigweed (Amaranthus retroflexus); test: Test A preemergence; conditions: Amaranthus retroflexus, pre-emergence, 240 h, Preemergence
[5] = test system: ragweed (common ragweed, Ambrosia elatior); test: Test A preemergence; conditions: Ambrosia artemisiifolia, pre-emergence, 240 h, Preemergence
How it was run: as §1

[6] = test system: ryegrass, Italian (Italian ryegrass, Lolium multiflorum); test: Test A preemergence; conditions: Lolium multiflorum, pre-emergence, 240 h, Preemergence
How it was run: as §1

[7] = test system: Kochia (Kochia scoparia); test: Test A postemergence; conditions: Bassia scoparia, post-emergence, 240 h, Postemergence, read-out: Kochia plant response rating (0 to 100 scale)
How it was run: as §1

[8] = test system: barnyardgrass (Echinochloa crus-galli); test: Test A postemergence; conditions: Echinochloa crus-galli, post-emergence, 240 h, Postemergence
How it was run: as §1

[9] = test system: blackgrass (Alopecurus myosuroides); test: Test A postemergence; conditions: Alopecurus myosuroides, post-emergence, 240 h, Postemergence, read-out: Blackgrass plant response rating (0 to 100 scale)
How it was run: as §1

[10] = test system: corn (Zea mays); test: Test A postemergence; conditions: Zea mays, post-emergence, 240 h, Postemergence, read-out: Corn plant response rating (0 to 100 scale)
How it was run: as §1

[11] = test system: giant foxtail (Setaria faberii); test: Test A postemergence; conditions: Setaria faberi, post-emergence, 240 h, Postemergence, read-out: Foxtail, Giant plant response rating (0 to 100 scale)
How it was run: as §1

[12] = test system: pigweed (Amaranthus retroflexus); test: Test A postemergence; conditions: Amaranthus retroflexus, post-emergence, 240 h, Postemergence, read-out: Pigweed plant response rating (0 to 100 scale)
How it was run: as §1

[13] = test system: ragweed (common ragweed, Ambrosia elatior); test: Test A postemergence; conditions: Ambrosia artemisiifolia, post-emergence, 240 h, Postemergence, read-out: Ragweed plant response rating (0 to 100 scale)
How it was run: as §1

[14] = test system: ryegrass, Italian (Italian ryegrass, Lolium multiflorum); test: Test A postemergence; conditions: Lolium multiflorum, post-emergence, 240 h, Postemergence, read-out: Ryegrass, Italian plant response rating (0 to 100 scale)
How it was run: as §1

[15] = test system: wheat (Triticum aestivum); test: Test A postemergence; conditions: Triticum aestivum, post-emergence, 240 h, Postemergence, read-out: Wheat plant response rating (0 to 100 scale)
How it was run: as §1

[16] = test system: barnyardgrass (Echinochloa crus-galli); test: Test B flooded paddy test; conditions: Echinochloa crus-galli, 360 h, Flood, 250 g ai/ha; visually evaluated after 13 to 15 d; read-out: Plant response rating, Barnyardgrass (0 to 100 scale where 0 is no effect and 100 is complete control)
How it was run: (§2)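 Percent control, visually estimated after 13–15 d in the greenhouse on a 0–100 basis, compares treated pots with untreated ones; compound was put into paddy water 3 cm above the soil when plants had two leaves.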

[17] = test system: ducksalad (Heteranthera limosa); test: Test B flooded paddy test; conditions: Heteranthera limosa, 360 h, Flood, 250 g ai/ha; visually evaluated after 13 to 15 d; read-out: Plant response rating, Ducksalad (0 to 100 scale where 0 is no effect and 100 is complete control)
How it was run: as §2

[18] = test system: rice (Oryra sativa); test: Test B flooded paddy test; conditions: Oryza sativa, 360 h, Flood, 250 g ai/ha; visually evaluated after 13 to 15 d; read-out: Plant response rating, Rice (0 to 100 scale where 0 is no effect and 100 is complete control)
How it was run: as §2

[19] = test system: sedge, umbrella (small-flower umbrella sedge, Cyperus difformis); test: Test B flooded paddy test; conditions: Cyperus difformis, 360 h, Flood, 250 g ai/ha; visually evaluated after 13 to 15 d; read-out: Plant response rating, Sedge, Umbrella (0 to 100 scale where 0 is no effect and 100 is complete control)
How it was run: as §2

[20] = 125 g ai/ha, visual rating about 10 d after treatment
[21] = 31 g ai/ha, 0 is no effect, 100 is complete control

Question: Which results are given for `Cc1ccncc1NC(=O)[C@H]1C(=O)N(C)C[C@@H]1c1ccc2c(c1)OC(F)(F)O2` [Compound 1351]?
Answer: pest or weed control at 31 g/ha ([1]; 31 g ai/ha, 0 to 100 scale where 0 is no effect and 100 is complete control, read-out: Kochia plant response rating): 0%; pest or weed control at 125 g/ha ([1]; 125 g ai/ha, 0 to 100 scale (0 no effect, 100 complete control), read-out: Plant response rating, Kochia): 0%; pest or weed control at 31 g/ha ([2]; 31 g ai/ha, 0 to 100 scale where 0 is no effect and 100 is complete control, read-out: Barnyardgrass plant response rating): 0%; pest or weed control at 125 g/ha ([2]; 125 g ai/ha, 0 to 100 scale (0 no effect, 100 complete control), read-out: Plant response rating, Barnyardgrass): 0%; pest or weed control at 31 g/ha ([3]; 31 g ai/ha, 0 to 100 scale where 0 is no effect and 100 is complete control, read-out: Foxtail, Giant plant response rating): 0%; pest or weed control at 125 g/ha ([3]; 125 g ai/ha, 0 to 100 scale (0 no effect, 100 complete control), read-out: Plant response rating, Foxtail, Giant): 0%; pest or weed control at 31 g/ha ([4]; 31 g ai/ha, 0 to 100 scale where 0 is no effect and 100 is complete control, read-out: Pigweed plant response rating): 0%; pest or weed control at 125 g/ha ([4]; 125 g ai/ha, 0 to 100 scale (0 no effect, 100 complete control), read-out: Plant response rating, Pigweed): 0%; pest or weed control at 31 g/ha ([5]; 31 g ai/ha, 0 to 100 scale where 0 is no effect and 100 is complete control, read-out: Ragweed plant response rating): 0%; pest or weed control at 125 g/ha ([5]; 125 g ai/ha, 0 to 100 scale (0 no effect, 100 complete control), read-out: Plant response rating, Ragweed): 0%; pest or weed control at 31 g/ha ([6]; 31 g ai/ha, 0 to 100 scale where 0 is no effect and 100 is complete control, read-out: Ryegrass, Italian plant response rating): 0%; pest or weed control at 125 g/ha ([6]; 125 g ai/ha, 0 to 100 scale (0 no effect, 100 complete control), read-out: Plant response rating, Ryegrass, Italian): 0%; pest or weed control at 125 g/ha [7, 20]: 0%; pest or weed control at 31 g/ha [7, 21]: 0%; pest or weed control at 125 g/ha ([8]; 125 g ai/ha, visual rating about 10 d after treatment, read-out: Barnyardgrass plant response rating (0 to 100 scale, 0 no effect, 100 complete control)): 0%; pest or weed control at 31 g/ha ([8]; 31 g ai/ha, 0 is no effect, 100 is complete control, read-out: Barnyardgrass plant response rating (0 to 100 scale)): 0%; pest or weed control at 125 g/ha [9, 20]: 0%; pest or weed control at 31 g/ha [9, 21]: 0%; plant injury at 125 g/ha [10, 20]: 0%; plant injury at 31 g/ha [10, 21]: 0%; pest or weed control at 125 g/ha [11, 20]: 0%; pest or weed control at 31 g/ha [11, 21]: 0%; pest or weed control at 125 g/ha [12, 20]: 0%; pest or weed control at 31 g/ha [12, 21]: 0%; pest or weed control at 125 g/ha [13, 20]: 0%; pest or weed control at 31 g/ha [13, 21]: 0%; pest or weed control at 125 g/ha [14, 20]: 0%; pest or weed control at 31 g/ha [14, 21]: 0%; plant injury at 125 g/ha [15, 20]: 0%; plant injury at 31 g/ha [15, 21]: 0%; pest or weed control at 250 g/ha [16]: 0%; pest or weed control at 250 g/ha [17]: 40%; pest or weed control at 250 g/ha [18]: 0%; pest or weed control at 250 g/ha [19]: 0%
